Reference: PubChem BioAssay (NCI)
Values joined by “and” are separate entries in the source; they are usually repeats but may differ in a detail not shown here. Identical values can stand only once.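 Briefly, cells in 96-well plates were exposed to five compound concentrations for 48 h, and endpoints were estimated by linear interpolation. GI50 = concentration required for 50% inhibition of growth. TGI is the concentration that stops growth completely.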

Key:
Test in all cases: NCI anticancer screen, dose series, 48 h
A498 renal = test system: A498 renal
ACHN renal = test system: ACHN renal
HCC-2998 colon = test system: HCC-2998 colon
HOP-92 NSCLC = test system: HOP-92 NSCLC
KM12 colon = test system: KM12 colon
MDA-MB-435 = test system: MDA-MB-435
NCI-H522 lung = test system: NCI-H522 lung
OVCAR-8 ovarian = test system: OVCAR-8 ovarian
RPMI-8226 leukemia = test system: RPMI-8226 leukemia
UACC-257 melanoma = test system: UACC-257 melanoma

SMILES | GI50 (A498 renal) [µM] | TGI (A498 renal) [µM] | GI50 (ACHN renal) [µM] | TGI (ACHN renal) [µM] | GI50 (HCC-2998 colon) [µM] | TGI (HCC-2998 colon) | GI50 (HOP-92 NSCLC) [µM] | TGI (HOP-92 NSCLC) [µM] | GI50 (KM12 colon) | TGI (KM12 colon) | GI50 (MDA-MB-435) [µM] | TGI (MDA-MB-435) [µM] | GI50 (NCI-H522 lung) [µM] | TGI (NCI-H522 lung) | GI50 (OVCAR-8 ovarian) [µM] | TGI (OVCAR-8 ovarian) [µM] | GI50 (RPMI-8226 leukemia) [µM] | TGI (RPMI-8226 leukemia) | GI50 (UACC-257 melanoma) [µM] | TGI (UACC-257 melanoma)
COc1ccc(-c2nc3sccn3c2-c2ccnc(NCCCNS(=O)(=O)c3ccc(F)cc3)n2)cc1 | 2.6 | > 100 | 1.99 | 7.73 | 5.11 | 57.2 µM | 1.75 | > 100 | 2.57 µM | 9.24 µM | 2 | 6.51 | 1.41 | 6.34 µM | 1.57 | > 100 | 1.6 | 5.37 µM | 2.85 | > 100 µM
COc1cc(-c2nn(-c3cccc(NC(=O)CCN4CCN(C)CC4)c3)cc2-c2ccncc2)ccc1Cl | 0.412 | 3.23 | 1.61 | 10.7 | 1.86 | 3.79 µM | 0.675 | 6.42 | 1.36 µM | 4.59 µM | 0.283 | 1.13 | 0.283 | 1.08 µM | 2.77 | 12 | 1.77 | 4.56 µM | 1.44 | 3.07 µM
OCc1ccc(N(Cc2ccc(F)cc2)CC2CCC2)cc1Cl | 0.092 | 0.34 | 13 | 26 | 11.5 | 25.2 µM | 0.839 | 12.8 | 14 µM | 27.8 µM | 15.4 | 30 | 12.7 | 27.1 µM | 14.7 | 32.4 | 9.28 | 31.6 µM | 1.53 | 7.78 µM
Fc1ccc(-c2c(-c3ccncc3)[nH]c3nccnc23)cc1 | 4.76 | > 23.2 | 3.05 | > 25 | 12 | > 25 µM | > 25 | > 25 | 8.92 µM | > 25 µM | 11.6 | > 25 | > 11.1 | > 21.6 µM | 10.4 | > 25 | > 25 | > 25 µM | > 20 | > 25 µM
CNCCN(C)Cc1cn[nH]c1-c1ccc(OC2CC(OCCC3CCOCC3)C2)cc1 (centres undefined) | > 57.1 | > 100 | 64.6 | > 100 | > 100 | > 100 µM | 1.43 | > 50.8 | > 83.9 µM | > 100 µM | > 100 | > 100 | > 100 | > 100 µM | > 100 | > 100 | 44.4 | > 100 µM | 61.6 | > 100 µM
CCN(CCO)CCCOc1ccc2c(Nc3cc(CC(=O)Nc4cccc(F)c4)[nH]n3)ncnc2c1 | > 49.1 | > 100 | > 100 | > 100 | 20.8 | 61.9 µM and > 3.75 µM | 10.6 | 33.3 | 3.45 µM and 0.82 µM | 16 µM and > 10 µM | 14.1 | 34 | – | 37.2 µM and > 4.22 µM | 23.8 | > 100 | 15.4 | 47.8 µM and > 2.17 µM | 12.4 | 29.2 µM and > 2.56 µM
Cc1cn2c(/C=C3/C(=O)Nc4ccc(Cl)cc43)c(C)nc2s1 | 0.1 | 0.645 | 0.185 | 48.4 | < 0.024 | 1.04 µM | 16 | 70.1 | 1.17 µM | 24 µM | 2.12 | 5.41 | 1.01 | > 100 µM | 2.75 | 32.7 | 0.0137 | > 100 µM | 12.9 | > 100 µM
CC[C@@]1(O)C(=O)NCc2c1cc1n(c2=O)Cc2cc3c(NC(C)=O)cccc3nc2-1 | > 100 | > 100 | > 100 | > 100 | > 100 | > 100 µM | > 100 | > 100 | > 100 µM | > 100 µM | > 100 | > 100 | > 100 | > 100 µM | > 100 | > 100 | > 30.3 | > 100 µM | > 100 | > 100 µM
O=C1C(Br)=CC2(C=C1Br)CCNc1c(O)c3c4c(c12)=NCCC=4C=N3 | – | 3.56 | – | 0.307 | – | 1.21 µM | – | 0.185 | – | 1.61 µM | – | 0.245 | – | 0.0542 µM | – | 0.511 | – | 0.212 µM | – | 0.25 µM
O=C1/C(=C/c2ccccc2[N+](=O)[O-])COc2ccc(O)c(O)c21 | 2.11 | 5.07 | 0.278 | 0.863 | 1.56 | 3.16 µM | 1.1 | 2.9 | 1.55 µM | 3.72 µM | 0.691 | 2.38 | 0.208 | 0.509 µM | 0.525 | 18.6 | 0.421 | > 41.3 µM | 1.42 | 4.06 µM
